In patent publication US11453671B2, “Pyrazolopyrimidine inhibitors of JAK kinases and uses thereof” (Genentech, Inc., priority 2020, dated 2022):
Like-named read-outs stand apart in the source and are kept apart here.

How the values were obtained:
[1] = molecular target: T1, recombinant human JAK1 kinase domain protein (Residues 854-1154) (Homo sapiens, UniProt P23458); test: JAK1 biochemical assay (microfluidic mobility shift, peptide phosphorylation); settings: 25 μM ATP, 1 nM total JAK1; read-out: Enzyme JAK1 Ki
T1 construct: human JAK1 kinase domain protein (Residues 854-1154); purchased Proteros Biostructures GmbH (Martinsried, Germany); host or cells: insect cells
T1 sequence (P23458 854-1154): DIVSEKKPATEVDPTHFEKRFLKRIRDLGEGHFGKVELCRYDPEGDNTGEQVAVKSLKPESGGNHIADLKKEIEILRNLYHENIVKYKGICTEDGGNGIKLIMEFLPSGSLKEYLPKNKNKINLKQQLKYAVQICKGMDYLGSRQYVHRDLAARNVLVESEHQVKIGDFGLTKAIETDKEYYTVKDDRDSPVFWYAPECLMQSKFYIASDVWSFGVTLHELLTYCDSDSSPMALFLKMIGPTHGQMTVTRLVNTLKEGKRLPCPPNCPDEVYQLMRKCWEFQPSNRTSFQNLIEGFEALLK
Description: JAK1 and JAK2 Biochemical Assays

[2] = tested on: JAK1: IL-13-stimulated STAT6 phosphorylation in BEAS-2B cells; test: P-STAT6 BEAS-2B+IL-13 Cell Assay; type: cell-based, human; settings: Homo sapiens, BEAS-2B, IL-13 stimulation, read-out: Cellular JAK1 PSTAT6 BEAS2B + IL13 IC50
Outline: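 BEAS-2B cells in BEGM preincubated 1 h at 37 °C with 10-point, 1:2 compound dilutions, then stimulated 15 min with IL-13 (250 ng/mL stock). Lysate pSTAT6 (Tyr641) captured on total-STAT6 antibody and read by MSD electrochemiluminescence; IC50 from four-parameter logistic fit.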

[3] = tested on: JAK1 pathway: P-STAT6 in TF-1 human erythroleukemia cells + IL-13; test: P-STAT6 TF-1+Interleukin-13 (IL-13) assay; type: cell-based; settings: Homo sapiens, TF-1, TF-1 cells, IL-13 stimulation; read-out: Cellular JAK1 PSTAT6 TF-1 + IL13 IC50
Method: (§1) TF-1 human erythroleukemia cells (ATCC®; Manassas, Va.; Catalog No. CRL-2003™) were grown in Roswell Park Memorial Institute (RPMI) medium supplemented with 10% heat-inactivated fetal bovine serum (FBS), 2 ng/mL granulocyte-macrophage colony-stimulating factor, 1×non-essential amino acids (NEAA), and 1 mM sodium pyruvate. The day before the assay, the cultures were transferred to Opti-MEM™, 1×NEAA, 1 mM sodium pyruvate, and 0.5% charcoal-stripped FBS (starve medium). Inhibitor stock solutions (5 mM in DMSO) were serially diluted 1:2 in DMSO to generate a 10-point concentration titration (at 500×test concentration), which was further diluted by a 50-fold dilution in Assay Medium (RPMI containing 1×NEAA and 1 mM sodium pyruvate) to generate a 10×concentration titration (in 2% DMSO). The cells (300,000 cells/well in 35 μL of Assay Medium) were seeded in 384-well Greiner plates. Diluted inhibitor at 10×concentration (5 μL) was added to the cells and the plates were incubated for 30 minutes at 37° C. in a humidified incubator. Cells were stimulated with the human recombinant cytokine at the respective EC90 concentrations, as previously determined for each individual lot. For the phosphorylated signal transducer and activator of transcription 6 (P-STAT6) TF-1+Interleukin-13 (IL-13) assay, 10 μL of 250 ng/mL IL-13 (R&D Systems; Minneapolis, Minn.) was added to the cells, which were then incubated for 10 minutes at 37° C. For the P-STAT5 TF-1+Erythropoietin (EPO) assay, 10 μL of 110 IU/mL EPO (Gibco Life Technologies, Catalog No. PHC2054) was added to the cells, which were then incubated for 30 min at 37° C. For both assays, the incubation was followed by addition to the cells of 5 μL of ice-cold 10× cell lysis buffer (Cell Signaling Technologies; Danvers, Mass.; Catalog No. 9803S) containing 1 mM phenylmethylsulfonyl fluoride (PMSF). Assay plates were frozen at −80° C. for a minimum of 1 horn. In the IL-13 assay, P-STAT6 was measured by coating goat anti-rabbit (GAR) plates (Meso Scale Discovery [MSD]; Rockville, Md.; Catalog No. MSD L21RA-1) with rabbit anti-human total STAT6 antibody (Cell Signaling Technologies; Catalog No. 9362S), incubating the cell lysates in the coated plates overnight at 4° C., and then detecting with mouse anti-P-STAT6 (Tyr641) Clone 16E12 antibody (MilliporeSigma; Burlington, Mass.; Catalog No. 05-590, custom labeled by MSD with SULFO-tag) using standard MSD plate processing, washing, and detection protocols. In the EPO assay, P-STAT5 was detected using the phospho-STAT5a,b Whole Cell Lysate Kit (MSD; Catalog No. K150IGD-1). The electrochemiluminescence (ECL) signal of wells was read on the MESO SECTOR S600 (MSD) reader.

[4] = tested on: JAK2 pathway: P-STAT5 in TF-1 human erythroleukemia cells + EPO; test: P-STAT5 TF-1+Erythropoietin (EPO) assay; type: cell-based; settings: EPO stimulation, read-out: Cellular JAK2 PSTAT5 TF-l + EPO IC50
Method: as §1

[5] = molecular target: Recombinant human JAK2 kinase domain protein (Residues 812-1132) (Homo sapiens, UniProt O60674); test: JAK2 biochemical assay (microfluidic mobility shift, peptide phosphorylation); settings: Enzyme JAK2 Ki (nM), 25 μM ATP, 0.2 nM total JAK2
Sequence of Recombinant human JAK2 kinase domain protein (Residues 812-1132) (O60674 812-1132): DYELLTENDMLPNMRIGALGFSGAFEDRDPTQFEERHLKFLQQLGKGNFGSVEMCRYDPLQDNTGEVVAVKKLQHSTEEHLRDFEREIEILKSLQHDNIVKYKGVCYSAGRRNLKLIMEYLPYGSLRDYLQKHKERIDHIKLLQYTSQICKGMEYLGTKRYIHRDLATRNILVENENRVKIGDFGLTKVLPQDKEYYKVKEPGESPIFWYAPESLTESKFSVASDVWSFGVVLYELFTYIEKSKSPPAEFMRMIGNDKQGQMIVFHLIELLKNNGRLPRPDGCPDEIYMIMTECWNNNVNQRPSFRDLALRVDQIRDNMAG

Ki [1] [nM] | IC50 [3] [nM] | IC50 ([4]; Homo sapiens, TF-1, TF-1 cells) [nM] | Ki [5] [nM] | IC50 ([4]; TF-1 cells) [nM] | Compound | IC50 [2] [nM]
1.1 | 24 | 170 | 2.5 |  | CN1CCC[C@@H]1Cn1cc(NC(=O)c2cnn3cccnc23)c(-c2cc(S(=O)(=O)C3CC3)ccc2OC(F)F)n1 (racemic) [Example 60, N-[3-[5-cyclopropylsulfonyl-2-(difluoromethoxy)phenyl]-1-[[rac-(2R)-1-methylpyrrolidin-2-yl]methyl]pyrazol-4-yl]pyrazolo[1,5-a]pyrimidine-3-carboxamide] | 44
1.8 | 71 |  | 1.1 | 120 | Cn1cc(NC(=O)c2cnn3cccnc23)c(-c2cc(S(=O)(=O)C3CCCNC3)ccc2OC(F)F)n1 (single isomer, unassigned) [Example 36, N-[3-[2-(difluoromethoxy)-5-(3-piperidylsulfonyl)phenyl]-1-methyl-pyrazol-4-yl]pyrazolo[1,5-a]pyrimidine-3-carboxamide] | 
1.7 | 27 | 160 | 1.9 |  | CN(C)CCn1cc(NC(=O)c2cnn3cccnc23)c(-c2cc(S(=O)(=O)C3CC3)ccc2OC(F)F)n1 [Example 50, N-[3-[5-cyclopropylsulfonyl-2-(difluoromethoxy)phenyl]-1-[2-(dimethylamino)ethyl]pyrazol-4-yl]pyrazolo[1,5-a]pyrimidine-3-carboxamide] | 50

Continued, molecule first:

Compound | Ki [1] [nM] | IC50 [3] [nM] | IC50 ([4]; Homo sapiens, TF-1, TF-1 cells) [nM] | Ki [5] [nM] | IC50 ([4]; TF-1 cells) [nM] | IC50 [2] [nM]
CC(C)S(=O)(=O)c1ccc(OC(F)F)c(-c2nn(C)cc2NC(=O)c2cnn3cccnc23)c1 [Example 1, N-[3-[2-(difluoromethoxy)-5-isopropylsulfonyl-phenyl]-1-methyl-pyrazol-4-yl]pyrazolo[1,5-a]pyrimidine-3-carboxamide] | 0.56 | 6.3 | 12 | 0.25 |  | 31
Cn1cc(NC(=O)c2cnn3cccnc23)c(-c2cc(S(=O)(=O)c3cccnc3)ccc2OC(F)F)n1 [Example 42, N-[3-[2-(difluoromethoxy)-5-(3-pyridylsulfonyl)phenyl]-1-methyl-pyrazol-4-yl]pyrazolo[1,5-a]pyrimidine-3-carboxamide] | 0.42 | 2.6 | 21 | 0.24 |  | 30
C[C@@H](Cn1cc(S(=O)(=O)c2ccc(OC(F)F)c(-c3nn(C)cc3NC(=O)c3cnn4cccnc34)c2)cn1)N(C)C [Example 58, N-[3-[2-(difluoromethoxy)-5-[1-[(2S)-2-(dimethylamino)propyl]pyrazol-4-yl]sulfonyl-phenyl]-1-methyl-pyrazol-4-yl]pyrazolo[1,5-a]pyrimidine-3-carboxamide] | 0.89 | 24 | 32 | 0.86 |  | 40
CN1CC(n2cc(S(=O)(=O)c3ccc(OC(F)F)c(-c4nn(C)cc4NC(=O)c4cnn5cccnc45)c3)cn2)C1 [Example 61, N-[3-[2-(difluoromethoxy)-5-[1-(1-methylazetidin-3-yl)pyrazol-4-yl]sulfonyl-phenyl]-1-methyl-pyrazol-4-yl]pyrazolo[1,5-a]pyrimidine-3-carboxamide] | 0.81 | 190 | 200 | 0.77 |  | 34
